Data from ChEMBL document CHEMBL1629535, “Novel small molecule inhibitors of MDR Mycobacterium tuberculosis by NMR fragment screening of antigen 85C” (2010).
Values after ≈ are worked out from the molar mass of the structure shown.

Assays:
Type in all cases: functional
[1] = tested on: Mycolicibacterium smegmatis; assay: Growth inhibition of Mycobacterium smegmatis
Mycolicibacterium aurum = assay: Growth inhibition of multidrug resistance Mycobacterium aurum
[2] = tested on: Mycobacterium tuberculosis; assay: Growth inhibition of Mycobacterium tuberculosis H37 by radiometric BACTEC 460 assay

| SMILES | MIC [1] [mg/L] | MIC (Mycolicibacterium aurum) [mg/L] | MIC [2] [mg/L] |
| --- | --- | --- | --- |
| CC1CCc2c(sc(N)c2C(N)=O)C1 (configuration not stated) | > 32 | – | – |
| CCCC1CCc2c(sc(N)c2C(N)=O)C1 (configuration not stated) | 64 (≈ 269 µM) | – | – |
| [N-]=[N+]=NC[C@H]1O[C@H](O[C@H]2O[C@H](CO)[C@@H](O)[C@H](O)[C@H]2O)[C@H](O)[C@@H](O)[C@@H]1O | – | 200 (≈ 544 µM) | – |
| N#Cc1c(N)sc2c1CCCCC2 | 64 (≈ 333 µM) | – | > 500 |
| CCC1CCc2c(sc(N)c2C#N)C1 (configuration not stated) | 32 (≈ 155 µM) | – | 50 (≈ 242 µM) |
| CCCC1CCc2c(sc(N)c2C#N)C1 (configuration not stated) | 16 (≈ 72.6 µM) | – | 50 (≈ 227 µM) |
| CCC1CCc2c(sc(N)c2C(N)=O)C1 (configuration not stated) | 64 (≈ 285 µM) | – | – |
| CCCOc1ccc2nc(N)sc2c1 | 32 (≈ 154 µM) | – | 20 (≈ 96 µM) |
